Measured values from article PMC12175177 (Frontiers in Pharmacology, 2025).

Tested on: SARS-CoV-2 A2.5 variant
Assay: Pre- and post-exposure assay, A2.5 variant in Vero E6 cells
Type: cell-based

Row | Compound | antiviral effect, treatment 1 hour post-infection, A2.5 | effect on viral replication, treatment 1 hour pre-infection, A2.5
1 | CCN(CC)CCCC(C)Nc1ccnc2cc(Cl)ccc12 (stereo not shown) [Chloroquine diphosphate (CQ), Chloroquine diphosphate] | dose-dependent antiviral effect | did not influence the viral replication
2 | COc1cc(NC(C)CCCN)c2ncccc2c1 (stereo not shown) [Primaquine Phosphate (PQ), Primaquine Phosphate] | dose-dependent antiviral effect | did not influence the viral replication
